Results on one substance are retold here after PMC5684143, “New melanocortin-like peptide of E. coli can suppress inflammation via the mammalian melanocortin-1 receptor (MC1R): possible endocrine-like function for microbes of the gut” (NPJ Biofilms and Microbiomes, 2017).

The assay has as its system RAW 264.7 cells. The experiment in a line: HMGB1-induced TNF release by RAW 264.7 macrophage-like cells. The assay is classed as cell-based, murine. On the procedure: Fig. 1 MECO-1 attenuates HMGB1-induced TNF release by macrophages in culture. Murine macrophage-like RAW 264.7 cells were incubated for up to 24 h with purified recombinant HMGB1 (0.1 mg/ml) in the absence or presence of MECO-1 (Panel a), or alpha-MSH (Panel b), at 10^−10 and 10^−12 M. The levels of TNF in the culture medium were determined by ELISA and expressed as mean ± SEM of two independent experiments (in duplicate). *p < 0.05, **p < 0.01 vs. control (“HMGB1 alone”). […] In panels c and d, cells were incubated with HMGB1 for 6 h with or without MECO-1 or alpha-MSH (10^−16–10^−6 M). Data represent mean ± SEM of three independent experiments performed in duplicate. With 10^−14 M peptide, results were significant at *p < 0.05, and at 10^−12 M or more were typically **p < 0.01. In our experiments, at concentrations of MECO-1, alpha-MSH, and ACTH of around 1 nM and higher, dose response curves often reverse direction, i.e., turn upward. The reversal is more clearly seen in Fig. 2. The mechanism of the reversal is not known. (Desensitization, receptor inactivation, receptor internalization, and dissociation of dimeric receptors are all plausible candidates.) As a result, the shape of the lower part of the curve and the actual inflection point may vary from experiment to experiment. This feature may be missed when results of several experiments are combined
Murine macrophage-like RAW 264.7 cells were obtained from American Type Culture Collection, and were grown in Dulbecco’s Modified Eagle’s Medium (DMEM, Life Technologies) containing 10% (vol/vol) heat-inactivated fetal bovine serum (FBS, Hyclone Lab. Inc.), penicillin 100 U/ml, and streptomycin 100 μg/ml (BioWhittaker Inc.). Cells were suspended in medium and incubated in 24-well or 48-well tissue-culture plates overnight in a humidified incubator (37 °C, 5% CO2). Growth medium was removed and replaced by Opti-MEM I serum-free medium (Life Technologies) overnight. In the experiments, cell monolayers were stimulated with HMGB1 or LPS, in the absence or presence of MECO-1 or alpha-MSH; cell-free supernatants were assayed for TNF by ELISA or HMGB1 by western blotting.
Concentrations of TNF and IL-6 were each determined using a commercially available enzyme-linked immunosorbent assay (ELISA) kit (R&D System Inc.) as previously described.[34] The levels of TNF or IL-6 were calculated with reference to standard curves.
Fig. 3 Antibody to MC1R blocks suppressant effect of MECO-1 and alpha-MSH. Murine macrophage-like RAW 264.7 cells were pretreated with specific antibodies (“anti-MC1R Ab”) against melanocortin-1 receptor (MC1R) for 10 min prior to addition of HMGB1 in the absence or presence of MECO-1 or alpha-MSH at 10^−12 M. At 6 h, the TNF content of the cell-free medium was determined by ELISA, and expressed as mean ± SEM of two independent experiments performed in duplicate. ACTH at the same concentration gave results that were indistinguishable from those of alpha-MSH and MECO-1 (data not shown)

Consider “alpha-melanocyte-stimulating hormone [alpha-MSH]”, for which, for the setting “6 h incubation, dose range 10^−16–10^−6 M, three independent experiments in duplicate, p < 0.05”, the “peptide concentration at which significant effects on HMGB1-induced TNF release were noted” value is given as 10^−14 M. The “inhibition of HMGB-1-induced TNF release” value (Fig. 2d dose response, RAW 264.7 cells) is “up to 80%”. The “TNF accumulation with HMGB1 on co-incubation with peptide” value (peptide 10^−12–10^−8 M) is listed as “substantially reduced”. Besides, under “peptide at 1 pM and 100 pM, 4 to 16 h after HMGB-1, HMGB1 0.1 mg/ml, ELISA, two independent experiments in duplicate”, the “HMGB-1-stimulated TNF-alpha release” value is listed as “blunted substantially”.
